From the NIST ThermoML archive (doi:10.1016/j.fluid.2006.05.027)

Assay: excess molar enthalpy (molar enthalpy of mixing); xn = mol fraction of the nth substance listed
Details: Fluid (supercritical or subcritical phases)

C=C(C)C1CC=C(C)CC1 (stereo not given) [1-methyl-4-(1-methylethenyl)cyclohexene] + O=C=O
excess molar enthalpy [kcal/mol]
Details	308.15 K	313.15 K	323.15 K
7640 kPa, x2 = 0.105	–	–	-0.125
7640 kPa, x2 = 0.129	-0.105	–	-0.151
7640 kPa, x2 = 0.152	–	–	-0.188
7640 kPa, x2 = 0.175	–	–	-0.21
7640 kPa, x2 = 0.196	-0.174	–	-0.241
7640 kPa, x2 = 0.218	–	-0.233	–
7640 kPa, x2 = 0.238	-0.211	-0.258	-0.31
7640 kPa, x2 = 0.277	-0.245	-0.287	-0.361
7640 kPa, x2 = 0.314	-0.271	–	–
7640 kPa, x2 = 0.349	–	-0.379	–
7640 kPa, x2 = 0.382	-0.329	–	-0.527
7640 kPa, x2 = 0.413	-0.374	-0.476	-0.555
7640 kPa, x2 = 0.442	-0.391	–	-0.594
7640 kPa, x2 = 0.47	–	-0.553	-0.644
7640 kPa, x2 = 0.492	–	-0.577	–
7640 kPa, x2 = 0.497	-0.435	–	–
7640 kPa, x2 = 0.522	-0.466	–	-0.725
7640 kPa, x2 = 0.546	–	-0.668	–
7640 kPa, x2 = 0.569	–	-0.697	-0.779
7640 kPa, x2 = 0.591	-0.533	–	-0.799
7640 kPa, x2 = 0.596	–	-0.755	–
7640 kPa, x2 = 0.613	–	–	-0.831
7640 kPa, x2 = 0.633	–	–	-0.868
7640 kPa, x2 = 0.652	-0.58	-0.832	-0.87
7640 kPa, x2 = 0.671	–	–	-0.817
7640 kPa, x2 = 0.697	-0.633	–	-0.755
7640 kPa, x2 = 0.722	–	–	-0.694
7640 kPa, x2 = 0.738	–	-0.957	-0.652
7640 kPa, x2 = 0.753	–	–	-0.613
7640 kPa, x2 = 0.775	–	-1.01	-0.559
7640 kPa, x2 = 0.808	-0.749	-1.03	-0.472
7640 kPa, x2 = 0.839	–	–	-0.394
7640 kPa, x2 = 0.845	–	-1.07	–
7640 kPa, x2 = 0.868	–	-0.985	-0.326
7640 kPa, x2 = 0.878	-0.814	–	–
7640 kPa, x2 = 0.894	–	–	-0.257
7640 kPa, x2 = 0.918	–	-0.617	-0.191
7640 kPa, x2 = 0.962	–	–	-0.0853
7640 kPa, x2 = 0.97	-0.848	–	–
7640 kPa, x2 = 0.972	-0.842	–	–
7640 kPa, x2 = 0.985	–	-0.153	–
10000 kPa, x2 = 0.058	–	-0.00359	0.00287
10000 kPa, x2 = 0.111	0.0136	-0.00526	–
10000 kPa, x2 = 0.136	0.0134	-0.00741	–
10000 kPa, x2 = 0.16	–	–	-0.0208
10000 kPa, x2 = 0.207	0.0184	-0.0117	-0.0535
10000 kPa, x2 = 0.25	0.0182	-0.0151	-0.0853
10000 kPa, x2 = 0.29	–	-0.0182	-0.117
10000 kPa, x2 = 0.328	0.0194	–	–
10000 kPa, x2 = 0.358	–	–	-0.18
10000 kPa, x2 = 0.363	–	-0.0294	–
10000 kPa, x2 = 0.38	–	-0.0392	–
10000 kPa, x2 = 0.397	0.0146	–	–
10000 kPa, x2 = 0.428	0.011	-0.0416	-0.248
10000 kPa, x2 = 0.486	0.0043	–	-0.301
10000 kPa, x2 = 0.513	–	-0.065	–
10000 kPa, x2 = 0.526	–	-0.0743	–
10000 kPa, x2 = 0.538	–	–	-0.357
10000 kPa, x2 = 0.548	-0.00741	–	–
10000 kPa, x2 = 0.562	-0.00908	-0.082	-0.383
10000 kPa, x2 = 0.585	–	–	-0.402
10000 kPa, x2 = 0.627	–	-0.105	-0.437
10000 kPa, x2 = 0.666	-0.0354	-0.118	-0.473
10000 kPa, x2 = 0.71	-0.0492	-0.14	–
10000 kPa, x2 = 0.75	-0.0612	-0.15	-0.551
10000 kPa, x2 = 0.785	-0.0746	-0.173	–
10000 kPa, x2 = 0.801	–	–	-0.585
10000 kPa, x2 = 0.818	-0.0903	–	-0.604
10000 kPa, x2 = 0.875	-0.105	-0.198	-0.627
10000 kPa, x2 = 0.923	-0.105	-0.199	-0.612
10000 kPa, x2 = 0.94	-0.0985	–	–
10000 kPa, x2 = 0.964	-0.0803	-0.146	–
10000 kPa, x2 = 0.972	–	–	-0.41
10000 kPa, x2 = 0.983	-0.0495	–	–
10000 kPa, x2 = 0.986	–	-0.0834	-0.243
